Measurements: ChEMBL document CHEMBL1149216, “Benzene-di-N-octylcarbamates as conformationally constrained phospholipase A(2) inhibitors” (Bioorg Med Chem Lett, 2004)

How the values were obtained:
[1] = molecular target: Phospholipase A2, major isoenzyme (Sus scrofa) (UniProt P00592); assay: Pre-steady-state inhibition constant against phospholipase A2; details: naja mocambique mocambique
[2] = molecular target: Phospholipase A2, major isoenzyme (Sus scrofa) (UniProt P00592); assay: k_2 value calculated from 1/Ki=(1/Ks)(k2/k_2); details: naja mocambique mocambique

Phospholipase A2, major isoenzyme (Sus scrofa), sequence (P00592 23-146 limits assumed): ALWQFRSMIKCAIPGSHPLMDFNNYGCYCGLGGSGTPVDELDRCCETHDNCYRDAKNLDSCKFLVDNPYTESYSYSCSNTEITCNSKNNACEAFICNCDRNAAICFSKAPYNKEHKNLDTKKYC

Question: How did the K2 [1] turn out when CCCCCCCCNC(=O)Oc1ccc(OC(=O)NCCCCCCCC)cc1 was run?
Answer: 0.21 s⁻¹

Question: And the Ks [1]?
Answer: 21 µM

Question: What about the k 2 [2] of the same molecule?
Answer: 0.15 s⁻¹

Question: Which K2 [1] does the source give for CCCCCCCCNC(=O)Oc1cccc(OC(=O)NCCCCCCCC)c1 here?
Answer: 0.13 s⁻¹

Question: And the Ks [1]?
Answer: 16 µM

Question: And the k 2 [2]?
Answer: 0.033 s⁻¹

Question: Which results are given for CCCCCCCCNC(=O)Oc1ccccc1OC(=O)NCCCCCCCC?
Answer: K2 [1]: 0.17 s⁻¹; Ks [1]: 68 µM; k 2 [2]: 0.028 s⁻¹
